In US20170057954A1, “SUBSTITUTED IMIDAZO[1,2-A]PYRIDINECARBOXAMIDES AND THEIR USE” (Bayer Pharma Aktiengesellschaft, priority 2014, published 2017):

system: recombinant guanylate cyclase reporter cell line; assay: Effect on a recombinant guanylate cyclase reporter cell line; assay type: cell-based; conditions: in some cases mean values for individual determinations, read-out: MEC (minimum effective concentration)
Method: B-2. Effect on a Recombinant Guanylate Cyclase Reporter Cell Line
The cellular activity of the compounds according to the invention is determined using a recombinant guanylate cyclase reporter cell line, as described in F. Wunder et al., Anal. Biochem. 339, 104-112 (2005).
Representative MEC values (MEC=minimum effective concentration) for the compounds of the invention are shown in the table below (in some cases as mean values for individual determinations): […]

Row | Structure (SMILES) | minimal effective concentration
1 | Cc1cc(OCc2c(F)ccc(C3CC3)c2F)c2nc(C)c(C(=O)NN3CCOCC3)n2c1 [Example 26] | 10 µM
2 | Cc1cc(OC(C)c2c(F)cccc2F)c2nc(C)c(C(=O)NOCCO)n2c1 (centres unmarked) [Example 13] | 10 µM
3 | Cc1cc(OCc2c(F)cccc2F)c2nc(C)c(C(=O)NNc3ccccn3)n2c1 [Example 40] | 0.3 µM
4 | COc1cc(OC)nc(NNC(=O)c2c(C)nc3c(OCc4c(F)cccc4F)cc(C)cn23)n1 [Example 43] | 0.3 µM
5 | Cc1cc(OCc2c(F)cccc2F)c2nc(C)c(C(=O)NOCCN)n2c1 [Example 7, N-(2-Aminoethoxy)-8-[(2,6-difluorobenzyl)oxy]-2,6-dimethylimidazo[1,2-a]pyridine-3-carboxamide hydrate] | 1 µM
6 | Cc1cc(OCc2c(F)cccc2F)c2nc(C)c(C(=O)NOCC(=O)NCc3ccc(Cl)cc3)n2c1 [Example 4] | 3 µM
7 | COCC(=O)NNC(=O)c1c(C)nc2c(OCc3c(F)cccc3F)cc(C)cn12 [Example 32] | 1 µM
8 | Cc1cc(OCc2c(F)cccc2F)c2nc(C)c(C(=O)NNc3ccc(Cl)c(Cl)c3)n2c1 [Example 52] | 0.3 µM
9 | Cc1cc(OCc2c(F)cccc2F)c2nc(C)c(C(=O)NOCCO)n2c1 [Example 1, 8-[(2,6-Difluorobenzyl)oxy]-N-(2-hydroxyethoxy)-2,6-dimethylimidazo[1,2-a]pyridine-3-carboxamide] | 0.3 µM
10 | Cc1cc(OCc2c(F)cccc2F)c2nc(C)c(C(=O)NNC(=O)CN3CCOCC3)n2c1 [Example 76, 8-[(2,6-Difluorobenzyl)oxy]-2,6-dimethyl-N′-(morpholin-4-ylacetyl)imidazo[1,2-a]pyridine-3-carbohydrazide] | 0.3 µM
11 | Cc1cc(OCc2c(F)cccc2F)c2nc(C)c(C(=O)NN3CCCCCC3)n2c1 [Example 62] | 0.1 µM
